Reference: PMC9459403, “New inhibitors of cathepsin V impair tumor cell proliferation and elastin degradation and increase immune cell cytotoxicity” (Computational and Structural Biotechnology Journal, 2022)
“Also recorded” adds a separate entry of the source. Marks after values point to notes of the source that are not given here. Where a SMILES comes first, the peptide text is derived from it. [ ]: non-standard residue; d: D form. The star is where a group is joined. Sta = CC(C)C[C@H](N)[C@@H](O)CC(=O)O; Isovaleryl = CC(C)CC(=O)*

Legend:
MCF7 cells = experiment: Proliferation assay (CFSE-labeled cells, flow cytometry); format: cell-based, human; conditions: 72 h; E-64d 10 μM, pepstatin 20 μM, LHVS 10 nM, CLIK-148 1 μM
Procedure: To assess the effect of cathepsin V inhibitors on cell proliferation, MCF7 cells were fluorescently labeled with carboxyfluorescein succinimidyl ester (CFSE; ImmunoChemistry Technologies, Bloomington, MN, USA) in PBS for 15 min at room temperature according to the manufacturer’s instructions. Cells were washed with PBS, resuspended in complete medium, seeded (at 4 × 10^4 cells/well) into 24-well plates, and allowed to adhere overnight. Cells were then treated with the following inhibitors: compound 7 (10 μM), E-64d (10 μM), CLIK-148 (1 μM), LHVS (10 nM), pepstatin (20 μM), their combinations, or DMSO (0.1 %) in 500 μL of medium for 72 h at 37 °C. To prepare cells for flow cytometry, cells were detached and transferred to round-bottomed polystyrene tubes and washed with PBS. Before measurement, 7-aminoactinomycin D (7-AAD; ImmunoChemistry Technologies, Bloomington, MN, USA) was added according to the manufacturer’s instructions to exclude dead cells. Therefore, the green fluorescence arising from CFSE was monitored only for viable cells. The measurement was performed using a FACSCalibur instrument (BD Biosciences, San Jose, CA, USA).

[1] = test system: U-937-derived macrophages; experiment: Intracellular elastin-FITC degradation; format: cell-based, human; conditions: 24 h; for effect on degradation of elastin-FITC compared to control cells: CLIK-148 1 μM, LHVS 10 nM; for decrease of elastin-FITC degradation: 10 μM, vs DMSO
Procedure: To evaluate the effect of the inhibitors on the elastolytic activity of cathepsin V, we assessed the intracellular degradation of elastin-FITC, a soluble bovine neck ligament elastin that is heavily labeled with FITC such that the fluorescence of the conjugate is quenched. Upon proteolysis, fluorescence is recovered and can be detected. U-937 cells, differentiated into macrophage-like cells, were seeded (at 1 × 10^5 cells/well) into 24-well plates with 500 μL of medium supplemented with 50 nM PMA. Inhibitors or DMSO (0.1 %) and elastin-FITC (10 μg/mL; AnaSpec, Fermont, CA, USA) were added to the medium and incubated for 24 h at 37 °C. Cells were detached and washed with PBS, and propidium iodide (BD Bioscience) was added to exclude dead cells. Therefore, green fluorescence arising from elastin-FITC degradation was monitored only for viable cells. The measurement was performed using a FACSCalibur instrument (BD Biosciences).

Cathepsin V [2] = molecular target: T1, Cathepsin V (Homo sapiens, UniProt O60911); experiment: Determination of Ki values and mode of inhibition; format: biochemical; conditions: for fold lower inhibition constant for cathepsin V than cathepsin L: selectivity cathepsin V vs cathepsin L
T1 construct: made in house; host or cells: Pichia pastoris
T1 sequence (O60911 114-334): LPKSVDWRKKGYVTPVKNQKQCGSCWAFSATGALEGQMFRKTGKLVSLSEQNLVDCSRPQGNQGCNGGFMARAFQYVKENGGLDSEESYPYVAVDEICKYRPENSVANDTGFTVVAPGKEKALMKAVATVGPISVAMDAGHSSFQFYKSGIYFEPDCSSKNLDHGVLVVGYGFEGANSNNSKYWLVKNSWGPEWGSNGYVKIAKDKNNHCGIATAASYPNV
Procedure: (§1) Human recombinant cathepsin V was expressed in Pichia Pastoris, and human recombinant cathepsin L was expressed in Escherichia coli, as reported, [51]. To determine the activities of cathepsins V and L, 100 mM acetate buffer (pH 5.5), containing 0.1 % PEG 8000 (Sigma-Aldrich, St. Louis, MO, USA), 5 mM cysteine, and 1.5 mM EDTA was used. Prior to the assay, the enzyme was activated in the assay buffer for 5 min at 37 °C.
(§2) Inhibition constants were calculated from reaction velocities measured at three substrate concentrations (0.5, 1, and 4 μM) in the presence of inhibitors at seven concentrations (0, 20, 40, 60, 80, 100, and 200 µM). The reaction was initiated by adding 90 μL of enzyme at final concentrations of 2.5 ng/mL and 0.02 nM for cathepsins V and L, respectively, to the wells of a black microtiter plate containing 5 μL of substrate and 5 μL of inhibitor. To evaluate cathepsin V and L activity, the substrate Z-Phe-Arg-AMC was used. The formation of the fluorescent degradation products was monitored as described above. All assay mixtures contained 5 % (v/v) DMSO. All measurements were performed in duplicates and repeated at least twice. The SigmaPlot® 12, Enzyme Kinetics Module™ 1.3 was used to calculate Ki values.

[3] = molecular target: T2, human recombinant cathepsin L (Homo sapiens, UniProt P07711); experiment: Determination of Ki values and mode of inhibition; format: biochemical
T2 construct: made in house; host or cells: Escherichia coli
T2 sequence (P07711 114-333): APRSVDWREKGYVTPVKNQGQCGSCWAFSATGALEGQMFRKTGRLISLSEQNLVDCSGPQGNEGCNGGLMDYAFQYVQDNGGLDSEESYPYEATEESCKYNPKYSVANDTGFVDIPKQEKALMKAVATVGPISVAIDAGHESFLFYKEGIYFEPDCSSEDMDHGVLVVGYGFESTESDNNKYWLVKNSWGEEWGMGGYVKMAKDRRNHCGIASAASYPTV
Procedure: as §1, §2

Cathepsin V [4] = molecular target: T1, Cathepsin V; experiment: Determination of binding reversibility (dilution method); format: biochemical; conditions: inhibitor 100 μM, cathepsin V 500 ng/ml
Procedure: Binding reversibility was determined according to the dilution method, which measures the recovery of enzymatic activity after rapid dilution of the enzyme-inhibitor complex. Cathepsin V (500 ng/ml) was incubated in the assay buffer with the inhibitor (100 μM). Half of the reaction mixture was immediately diluted 100-fold with the assay buffer and added to the wells of a black microplate containing 5 μL of substrate (at a final concentration of 2 μM), and the activity was measured. The other half of the reaction mixture was incubated for 2 h before it was diluted 100-fold, and then the activity was measured. The assay was performed in triplicates and repeated at least two times.

Cathepsin V [5] = molecular target: T1, Cathepsin V; experiment: Determination of relative inhibition, substrate Z-Phe-Arg-AMC; format: biochemical; conditions: inhibitor 50 μM; substrate 2 μM; mean ± SD (n = 2); read-out: Cathepsin V Ri (%) relative inhibition
Procedure: as §1
(§3) The effect of the inhibitors on cathepsin V and L activity was determined using the substrate Z-Phe-Arg-AMC (Bachem, Bubendorf, Switzerland). The reaction was initiated by adding 90 μL of the activated enzyme (final concentration 2.5 ng/mL and 0.02 nM for cathepsins V and L, respectively) to the wells of a black microtiter plate containing 5 μL of substrate (with a final concentration 2 μM) and 5 μL of inhibitor (with a final concentration of 50 μM). The formation of fluorescent degradation products during the reaction was monitored continuously at 460 nm ± 10 nm with excitation at 380 nm ± 20 nm at 37 °C on a Tecan Infinite M1000 (Mannedorf, Switzerland) spectrofluorometer. All assay mixtures contained 5 % (v/v) DMSO. To prevent false-positive inhibition due to the formation of compound aggregates, 0.01 % Triton X-100 was used. All measurements were performed in triplicate and repeated at least twice. Relative inhibition was calculated using the following equation: relative inhibition (%) = 100(1- vi/vo), where vi and vo denote the reaction velocities in the presence and absence of the inhibitor, respectively.

[6] = molecular target: T2, human recombinant cathepsin L; experiment: as above; format: biochemical; conditions: inhibitor 50 μM; substrate 2 μM; mean ± SD (n = 2); read-out: Cathepsin L Ri (%) relative inhibition
Procedure: as §1, §3

mode of inhibition of cathepsin V (Cathepsin V [2]) | Ki (Cathepsin V [2]; mean ± SD (n = 2)) [µM] | mode of inhibition of cathepsin L [3] | Ki ([3]; mean ± SD (n = 2)) [µM] | inhibition at 50 µM (Cathepsin V [5]) [%] | inhibition at 50 µM [6] [%] | Cathepsin V Ki (µM) (Cathepsin V [2]; mean ± SD (n = 2)) | Cathepsin L Ki ([3]; mean ± SD (n = 2)) [µM] | Cathepsin L Ki′ ([3]; mean ± SD (n = 2)) [µM] | Cathepsin V Ki′ (µM) (Cathepsin V [2]; mean ± SD (n = 2)) | fold lower inhibition constant for cathepsin V than cathepsin L (Cathepsin V [2]) | Cathepsin V Ki′ (Cathepsin V [2]; mean ± SD (n = 2)) [µM] | Compound | effect on cell proliferation (relative CFSE fluorescence intensity vs DMSO) (MCF7 cells) | effect on degradation of elastin-FITC compared to control cells [1] | binding reversibility: cathepsin V activity after 2 h incubation and 100-fold rapid dilution (Cathepsin V [4]) | Cathepsin L Ki′ (µM) ([3]; mean ± SD (n = 2)) | decrease of elastin-FITC degradation [1] [%]
– | – | – | – | – | – | – | – | – | – | – | – | CN(C)C(=O)[C@H](Cc1ccccc1)NC(=O)[C@H]1O[C@@H]1C(=O)NCCc1ccccn1 [CLIK-148, reference compound] | no effects on cell proliferation | did not decrease | – | – | –
competitive | 352 ± 78.6 | competitive | 84.3 ± 4 | > 20 | 23.5 ± 2.2 | – | – | – | – | – | – | CC(=O)c1cccc(NC(=O)c2cnc3sccn3c2=O)c1 [Compound 4, N-(3-acetylphenyl)-5-oxo-5H-thiazolo[3,2-a]pyrimidine-6-carboxamide] | – | – | reversible inhibition | – | –
– | – | uncompetitive | – | -5.8 ± 7 | 30.3 ± 5.5 | no inhibition | 11.2 ± 0.1 | 11.2 ± 0.1 | – | – | – | O=C(Nc1nc2c(s1)CN(Cc1ccccc1)CC2)c1cccc2ccccc12 [Compound 5, N-(5-benzyl-4,5,6,7-tetrahydrothiazolo[5,4-c]pyridin-2-yl)-1-naphthamide] | – | – | reversible inhibition; also recorded: restored | 11.2 ± 0.1^e µM | –
competitive | 8 ± 0.02 | competitive | 9.9 ± 0.9 | – | 83.7 ± 1 | – | – | – | – | – | – | CCCNC(=O)[C@H]1O[C@@H]1C(=O)N[C@H](C(=O)N1CCC[C@@H]1C(=O)OC)[C@@H](C)CC [Compound 25, Methyl ((2S,3S)-3-(propylcarbamoyl)oxirane-2-carbonyl)-L-isoleucyl-D-prolinate] | – | – | irreversible; also recorded: completely blocked | – | 12.6 ± 4.8
noncompetitive | 68.3 ± 4.6 | competitive | 249 ± 29.8 | > 20 | 22.6 ± 5.1 | – | – | – | 68.3 ± 4.6 ^g µM | more than 3 fold | – | Cc1cc(OCc2ccccc2)c(C(=O)C2OC2c2cc3ccccc3o2)cc1C (centres unmarked) [Compound 27, (3-(Benzofuran-2-yl)oxiran-2-yl)(2-(benzyloxy)-4,5-dimethylphenyl)methanone] | – | – | tight-binding or irreversible; also recorded: only partially restored | – | 7.1 ± 2.7
uncompetitive | – | competitive | 454 ± 69.1 | 27.6 ± 8.7 | 12.4 ± 0.7 | – | – | – | 21.2 ± 2.0^f µM | 21 fold | 21.2 ± 2.0 | O=C(c1ccccc1OCc1ccccc1)C1OC1c1csc(-c2ccccc2)n1 (centres unmarked) [Compound 40, (2-(Benzyloxy)phenyl)(3-(2-phenylthiazol-4-yl)oxiran-2-yl)methanone] | – | – | reversible; also recorded: restored | – | –
– | – | – | – | – | – | – | – | – | – | – | – | CC(C)C[C@H](NC(=O)N1CCOCC1)C(=O)N[C@H](/C=C/S(=O)(=O)c1ccccc1)CCc1ccccc1 [LHVS, morpholinurea-leucine-homophenylalanine-vinylsulfone-phenyl, reference compound] | no effects on cell proliferation | did not decrease | – | – | –
– | – | – | – | – | – | – | – | – | – | – | – | CC(C)CC(=O)N[C@H](C(=O)N[C@H](C(=O)N[C@@H](CC(C)C)[C@@H](O)CC(=O)N[C@@H](C)C(=O)N[C@@H](CC(C)C)[C@@H](O)CC(=O)O)C(C)C)C(C)C [pepstatin] (Isovaleryl-VV[Sta]A[Sta]-OH) | no effects on cell proliferation | – | – | – | –

Compound | mode of inhibition of cathepsin V (Cathepsin V [2]) | Ki (Cathepsin V [2]; mean ± SD (n = 2)) [µM] | mode of inhibition of cathepsin L [3] | Ki ([3]; mean ± SD (n = 2)) [µM] | inhibition at 50 µM (Cathepsin V [5]) [%] | inhibition at 50 µM [6] [%] | Cathepsin V Ki (µM) (Cathepsin V [2]; mean ± SD (n = 2)) | Cathepsin L Ki ([3]; mean ± SD (n = 2)) [µM] | Cathepsin L Ki′ ([3]; mean ± SD (n = 2)) [µM] | Cathepsin V Ki′ (µM) (Cathepsin V [2]; mean ± SD (n = 2)) | fold lower inhibition constant for cathepsin V than cathepsin L (Cathepsin V [2]) | Cathepsin V Ki′ (Cathepsin V [2]; mean ± SD (n = 2)) [µM] | effect on cell proliferation (relative CFSE fluorescence intensity vs DMSO) (MCF7 cells) | effect on degradation of elastin-FITC compared to control cells [1] | binding reversibility: cathepsin V activity after 2 h incubation and 100-fold rapid dilution (Cathepsin V [4]) | Cathepsin L Ki′ (µM) ([3]; mean ± SD (n = 2)) | decrease of elastin-FITC degradation [1] [%]
O=C(NCC1CCN(C(=O)Oc2ccccc2)CC1)NC(c1ccccc1)c1ccccc1 [Compound 42, Phenyl 4-((3-benzhydrylureido)methyl)piperidine-1-carboxylate] | noncompetitive | 156 ± 3.4 | noncompetitive | 319 ± 28.6 | 21.6 ± 4.6 | 3.5 ± 3.1 | – | – | – | 155.8 ± 3.4^e µM | more than 2 fold | – | – | – | reversible; also recorded: restored | 319.2 ± 28.6^e µM | –
